Reference: patent US20040110687A1, “Methods and compositions for treating gastrointestinal toxicity induced by cytoablative therapy” (priority 2002, published 2004)
Read-outs that look alike come from different tables or passages of the source. Marks after values point to notes of the source that are not given here.

How the values were obtained:
[1] = system: normal, non-tumor bearing mice; type: in vivo
Description: A second study was performed to determine whether RDP58 also limits 5-FU induced diarrhea. Normal, non-tumor bearing mice were treated with 100 mg/kg 5-FU daily for two consecutive days and were concurrently given 10 mg/kg RDP58 orally or water only. […] All ten animals in the control group had diarrhea compared to only three of ten RDP58 treated animals.

[2] = system: mice bearing CT-26 tumors; assay: CPT-11 efficacy and treatment related mortality with or without RDP58 in tumor model; type: in vivo; details: for reduction in tumor weight: CPT-11 100 mg/kg qdx3, three regimens
Description: To determine whether RDP58 altered the efficacy of CPT-11 therapy, mice bearing CT-26 tumors were treated with three regimens of CPT-11 at 100 mg/kg qdx3 and given 5.0 mg/kg RDP58 orally.

[3] = system: normal, non-tumor bearing mice; assay: CPT-11-induced gastrointestinal toxicity and mortality, RDP58 dose finding study
Description: In a dose finding study, normal, non-tumor bearing mice were injected intraperitoneally with 200 mg/kg CPT-11 once a day for three consecutive days and concurrently given 0, 2.5, 5.0 or 10 mg/kg RDP58 orally.

[4] = system: normal non-tumor bearing mice; assay: CPT-11 dose escalation (LD50) with or without oral RDP58; type: in vivo
Description: (§1) To determine whether concurrent oral RDP58 treatment can increase the maximum dose of CPT-11 without a concomitant increase in mortality, normal non-tumor bearing mice were injected qdx3 with 0, 100, 200, 300, or 400 mg/kg CPT-11 injected i.p. qdx3 on Days 0, 1 and 2. RDP58 was given orally at 10 mg/kg in the drinking water starting on Day 3. Mice were monitored for body weight loss, incidence of diarrhea and mortality until end of study on Day 12.

[5] = as above; type: in vivo, mice; details: mouse, in vivo, intraperitoneal; without RDP58, as restated in Example 7
Description: as §1

tumor bearing mice = assay: MTD vs 2xMTD CPT-11 with or without RDP58: mortality and tumor response
[6] = as above; details: mouse, in vivo
[7] = CPT-11 200 mg/kg/dose i.p. once a day for three days, RDP58 none
[8] = CPT-11 100 mg/kg qdx3 with 5.0 mg/kg RDP58 orally
[9] = RDP58 2.5 mg/kg/day orally with CPT-11 200 mg/kg/dose
[10] = RDP58 5 mg/kg/day orally with CPT-11 200 mg/kg/dose
[11] = RDP58 10 mg/kg/day orally with CPT-11 200 mg/kg/dose
[12] = RDP58 orally 10 mg/kg in the drinking water
[13] = RDP58 10 mg/kg orally with 5-FU 100 mg/kg
[14] = RDP58 10 mg/kg/day orally with 5-FU 100 mg/kg/dose

Molecule: O=c1[nH]cc(F)c(=O)[nH]1 [5-FU, 5-Fluorouracil, reference compound]
- Toxicity (%) Mortality ([1]; 5-FU 100 mg/kg/dose daily for two days, RDP58 none): 90(9/10) %
- survival rate ([1]; mouse, in vivo, 12 days): 10%

Molecule: CCc1c2c(nc3ccc(OC(=O)N4CCC(N5CCCCC5)CC4)cc13)-c1cc3c(c(=O)n1C2)COC(=O)[C@]3(O)CC [CPT-11, irinotecan, reference compound]
- reduction in tumor weight ([2]; RDP58 untreated): 61%
- mortality ([2]; control group, CPT-11 100 mg/kg qdx3 without RDP58): 40%
- Maximum weight loss [3, 7]: 29.4 ± 4.3
- Toxicity (%) Diarrhea [3, 7]: 97 (29/30)^b %
- Toxicity (%) Mortality [3, 7]: 73 (22/30) %
- mice died from CPT-11 treatment ([3]; control group, CPT-11 200 mg/kg without RDP58): 22 of 30
- LD50 ([4]; CPT-11 i.p. qdx3 alone, until Day 12): approximately 450 mg/kg/total dose
- LD50 at 12 days [5]: ~465 mg/kg
- animals that survived the complete treatment regimen (tumor bearing mice; 2×MTD CPT-11 (1200 mg/kg)): 50%
- animals died from the CPT-11 (tumor bearing mice; CPT-11 at MTD 600 mg/kg): No animals in this treatment group died
- MTD at 12 days [6]: 600 mg/kg

Molecule: Arg-nL-nL-nL-Arg-nL-nL-nL-Gly-Tyr [RDP58]
- reduction in tumor weight ([2]; with 5.0 mg/kg RDP58 orally): 55%
- survival [2, 8]: significantly increased
- treatment related deaths [2, 8]: No treatment related deaths
- maximum total body weight lost compared to RDP58 untreated mice ([3]; 5.0 and 10.0 mg/kg RDP58 with CPT-11 200 mg/kg): reduction
- survival twelve days after the first injection of CPT-11 ([3]; RDP58 0, 2.5, 5.0 or 10 mg/kg orally with CPT-11 200 mg/kg): dose dependent increase
- Maximum weight loss [3, 9]: 27.8 ± 3.7
- Toxicity (%) Diarrhea [3, 9]: 67 (10/15)^b %
- Toxicity (%) Mortality [3, 9]: 60 (9/15) %
- Maximum weight loss [3, 10]: 25.6 ± 4.4^a
- Toxicity (%) Diarrhea [3, 10]: 40 (12/30)^b %
- Toxicity (%) Mortality [3, 10]: 23 (7/30) %
- Maximum weight loss [3, 11]: 24.6 ± 1.9^a
- Toxicity (%) Diarrhea [3, 11]: 33 (5/15)^b %
- Toxicity (%) Mortality [3, 11]: 7 (1/15) %
- mice died from CPT-11 treatment ([3]; RDP58 group with CPT-11 200 mg/kg): one of fifteen
- appearance of diarrhea ([3]; mice receiving RDP58 with CPT-11 200 mg/kg): dose dependent decrease
- LD50 of CPT-11 with RDP58 ([4]; 10 mg/kg RDP58, as restated in Example 7): ~720 mg/kg total dose
- LD50 of CPT-11 with administration of RDP58 [4, 12]: approximately 725 mg/kg/total dose
- increase of CPT-11 LD50 by a factor [4, 12]: about 1.6 ×
- animals that had diarrhea [1, 13]: three of ten
- total body weight loss [1, 13]: significant reduction
- Maximum weight loss [1, 14]: 13.9 ± 3.8b
- Toxicity (%) Diarrhea [1, 14]: 30(3/10) %
- Toxicity (%) Mortality [1, 14]: 10(1/10) %
- survival rate ([1]; twelve days after 5-FU administration, RDP58 10 mg/kg orally): 90%
- animals that survived the complete treatment regimen (tumor bearing mice; 2×MTD CPT-11 + 10 mg/ml RDP58): 83%
